According to patent US4156724A, “N-acylamino-alpha-arylacetamido cephalosporins and antibacterial compositions and methods containing them” (Sumitomo Chemical Company, Limited, priority 1974, dated 1979):
Converted amounts (≈) assume the structure as drawn.

Legend:
Format in all cases: cell-based
[1] = system: Enterobacter aerogeneus No. 75; experiment: Minimum Inhibitory Concentration, Enterobacter aerogeneus No. 75; conditions: Enterobacter aerogeneus No. 75; for MIC: read-out: Minimum Inhibitory Concentration
Method: (§1) anti-microbial activity tests were carried out on the compounds obtained in the Examples.

[2] = system: Proteus vulgaris HX 19; experiment: Minimum Inhibitory Concentration, Proteus vulgaris HX 19; conditions: Proteus vulgaris HX 19; for MIC: HX19, read-out: Minimum Inhibitory Concentration
Method: as §1

[3] = system: Staphylococcus aureus 209 P; experiment: Minimum Inhibitory Concentration, Staphylococcus aureus 209 P; conditions: Staphylococcus aureus 209 P; for MIC: read-out: Minimum Inhibitory Concentration
Method: as §1

[4] = system: Pseudomonas aeruginosa 104; experiment: Minimum Inhibitory Concentration, Pseudomonas aeruginosa 104; conditions: Pseudomonas aeruginosa 104; for MIC: read-out: Minimum Inhibitory Concentration
Method: as §1

[5] = system: Escherichia coli NIHJ; experiment: Minimum Inhibitory Concentration, Escherichia coli NIHJ; conditions: Escherichia coli NIHJ; for MIC: read-out: Minimum Inhibitory Concentration
Method: as §1

[6] = system: Serratia No. 72; experiment: Minimum Inhibitory Concentration, Serratia No. 72
Method: as §1

[7] = system: Klebsiella pneumoniae 602; experiment: Minimum Inhibitory Concentration, Klebsiella pneumoniae 602; conditions: for MIC: Klebsiella pneumoniae, 602, Klebsiella pneumoniae 602, read-out: Minimum Inhibitory Concentration
Method: as §1

[8] = system: Staphylococcus aureus FS 289; experiment: Minimum Inhibitory Concentration, Staphylococcus aureus FS 289; conditions: Staphylococcus aureus FS 289, strain resistant to penicillin; for MIC: FS289, read-out: Minimum Inhibitory Concentration
Method: as §1
*Staphylococcus aureus FS 289: strain resistant to penicillin

MIC [1] [µg/mL]	MIC [2] [µg/mL]	MIC [3] [µg/mL]	MIC [4] [µg/mL]	MIC [5] [µg/mL]	MIC [6] [µg/mL]	MIC [7] [µg/mL]	MIC [8] [µg/mL]	SMILES	Minimum Inhibitory Concentration [1] [µg/mL]	Minimum Inhibitory Concentration [2] [µg/mL]	Minimum Inhibitory Concentration [3] [µg/mL]	Minimum Inhibitory Concentration [4] [µg/mL]	Minimum Inhibitory Concentration [5] [µg/mL]	Minimum Inhibitory Concentration [6] [µg/mL]	Minimum Inhibitory Concentration ([7]; Klebsiella pneumoniae 602) [µg/mL]	Minimum Inhibitory Concentration [8] [µg/mL]
25 (≈ 46.1 µM)	0.2 (≈ 0.369 µM)	0.39 (≈ 0.719 µM)	6.25 (≈ 11.5 µM)	12.5 (≈ 23 µM)	> 200	12.5 (≈ 23 µM)	3.13 (≈ 5.77 µM)	CC(=O)OCC1=C(C(=O)O)N2C(=O)C(NC(=O)C(NC(=O)c3ccnnc3O)c3ccc(N)cc3)C2SC1 (stereo not drawn) [Example 58]	–	–	–	–	–	–	–	–
3.13 (≈ 4.17 µM)	0.1 (≈ 0.133 µM)	1.56 (≈ 2.08 µM)	3.13 (≈ 4.17 µM)	1.56 (≈ 2.08 µM)	12.5 (≈ 16.6 µM)	1.56 (≈ 2.08 µM)	6.25 (≈ 8.32 µM)	Cc1nnc(SCC2=C(C(=O)O)N3C(=O)[C@@H](NC(=O)[C@H](NC(=O)c4cnc5ccc(N(C)C)nc5c4O)c4ccc(NC(N)=O)cc4)[C@H]3SC2)s1 [Example 28]	–	–	–	–	–	–	–	–
–	–	–	–	–	–	–	–	CC(=O)OCC1=C(C(=O)[O-])N2C(=O)C(NC(=O)C(NC(=O)c3cnc4cccnc4c3O)c3cccc(O)c3)C2SC1.[Na+] (stereo not drawn) [Example 138]	6.25	0.78	0.78	6.25	3.13	50	1.56	6.25
12.5 (≈ 17.2 µM)	0.39 (≈ 0.537 µM)	1.56 (≈ 2.15 µM)	6.25 (≈ 8.6 µM)	6.25 (≈ 8.6 µM)	12.5 (≈ 17.2 µM)	3.13 (≈ 4.31 µM)	6.25 (≈ 8.6 µM)	CSc1cnc2c(O)c(C(=O)NC(C(=O)NC3C(=O)N4C(C(=O)O)=C(CSc5nnc(C)s5)CSC34)c3ccc(CO)cc3)cnc2n1 (stereo not drawn) [Example 104]	–	–	–	–	–	–	–	–
25 (≈ 43.3 µM)	0.2 (≈ 0.347 µM)	0.39 (≈ 0.676 µM)	6.25 (≈ 10.8 µM)	12.5 (≈ 21.7 µM)	100 (≈ 173 µM)	12.5 (≈ 21.7 µM)	6.25 (≈ 10.8 µM)	CC(=O)OCC1=C(C(=O)O)N2C(=O)C(NC(=O)[C@H](NC(=O)c3cnccc3O)c3ccc(O)c(Cl)c3)C2SC1 (stereo partly drawn) [Example 117]	–	–	–	–	–	–	–	–
3.13 (≈ 4.74 µM)	0.2 (≈ 0.303 µM)	0.78 (≈ 1.18 µM)	3.13 (≈ 4.74 µM)	3.13 (≈ 4.74 µM)	12.5 (≈ 18.9 µM)	3.13 (≈ 4.74 µM)	6.25 (≈ 9.46 µM)	Nc1cccc(C(NC(=O)c2cnc3cccnc3c2O)C(=O)NC2C(=O)N3C(C(=O)O)=C(CSc4ccc(O)nn4)CSC23)c1 (stereo not drawn) [Example 65]	–	–	–	–	–	–	–	–
50 (≈ 85.4 µM)	0.39 (≈ 0.666 µM)	0.39 (≈ 0.666 µM)	12.5 (≈ 21.3 µM)	12.5 (≈ 21.3 µM)	200 (≈ 342 µM)	12.5 (≈ 21.3 µM)	6.25 (≈ 10.7 µM)	CC(=O)OCC1=C(C(=O)O)N2C(=O)[C@@H](NC(=O)[C@H](NC(=O)c3cncnc3O)c3ccc(NC(N)=O)cc3)[C@H]2SC1 [Example 5]	–	–	–	–	–	–	–	–
25 (≈ 46 µM)	0.39 (≈ 0.718 µM)	0.39 (≈ 0.718 µM)	6.25 (≈ 11.5 µM)	12.5 (≈ 23 µM)	> 200	25 (≈ 46 µM)	6.25 (≈ 11.5 µM)	CC(=O)OCC1=C(C(=O)O)N2C(=O)C(NC(=O)[C@H](NC(=O)c3cncnc3O)c3ccc(O)cc3)C2SC1 (stereo partly drawn) [Example 118]	–	–	–	–	–	–	–	–
3.13 (≈ 4.71 µM)	0.1 (≈ 0.15 µM)	1.56 (≈ 2.35 µM)	6.25 (≈ 9.4 µM)	1.56 (≈ 2.35 µM)	12.5 (≈ 18.8 µM)	3.13 (≈ 4.71 µM)	6.25 (≈ 9.4 µM)	Cc1nnc(SCC2=C(C(=O)O)N3C(=O)C(NC(=O)[C@H](NC(=O)c4cnc5cccnc5c4O)c4ccc(N)cc4)C3SC2)s1 (stereo partly drawn) [Example 52, 7-[D-α-(4-Hydroxy-1,5-naphthyridine-3-carbonamido)-α-p-aminophenylacetamido]-3-(2-methyl-1,3,4-thiadiazol-5yl)thiomethyl-3-cephem-4-carboxylic acid]	–	–	–	–	–	–	–	–
3.13 (≈ 4.61 µM)	0.1 (≈ 0.147 µM)	0.78 (≈ 1.15 µM)	3.13 (≈ 4.61 µM)	1.56 (≈ 2.3 µM)	12.5 (≈ 18.4 µM)	3.13 (≈ 4.61 µM)	3.13 (≈ 4.61 µM)	COc1ccc2ncc(C(=O)NC(C(=O)NC3C(=O)N4C(C(=O)O)=C(CSc5nnnn5C)CSC34)c3cccc(N)c3)c(O)c2n1 (stereo not drawn) [Example 67]	–	–	–	–	–	–	–	–
50 (≈ 123 µM)	12.5 (≈ 30.8 µM)	1.56 (≈ 3.85 µM)	> 200	12.5 (≈ 30.8 µM)	> 200	3.13 (≈ 7.72 µM)	12.5 (≈ 30.8 µM)	CC(=O)OCC1=C(C(=O)O)N2C(=O)[C@@H](NC(=O)[C@H](N)c3ccccc3)[C@H]2SC1 [CEG, reference compound]	–	–	–	–	–	–	–	–
12.5 (≈ 20.5 µM)	0.78 (≈ 1.28 µM)	0.78 (≈ 1.28 µM)	12.5 (≈ 20.5 µM)	12.5 (≈ 20.5 µM)	50 (≈ 81.9 µM)	6.25 (≈ 10.2 µM)	6.25 (≈ 10.2 µM)	Nc1cccc(C(NC(=O)c2ccnnc2O)C(=O)NC2C(=O)N3C(C(=O)O)=C(CSc4ccc(O)nn4)CSC23)c1 (stereo not drawn) [Example 87]	–	–	–	–	–	–	–	–
